Experimental findings from ChEMBL document CHEMBL1137536, “Dipeptidyl aspartyl fluoromethylketones as potent caspase inhibitors: peptidomimetic replacement of the P(2) amino acid by 2-aminoaryl acids and other non-natural amino acids” (Bioorg Med Chem Lett, 2007) are described below.

SMILES strings stand for the structures.

One experiment relates to HeLa. The experiment can be described thus: Inhibition of TNF-alpha-induced apoptosis in HeLa cells assessed as cell protection. The note with it: Homo sapiens.
In the next experiment the target is T1, Caspase-7 (Homo sapiens, UniProt P55210).
T1 sequence (P55210 whole entry): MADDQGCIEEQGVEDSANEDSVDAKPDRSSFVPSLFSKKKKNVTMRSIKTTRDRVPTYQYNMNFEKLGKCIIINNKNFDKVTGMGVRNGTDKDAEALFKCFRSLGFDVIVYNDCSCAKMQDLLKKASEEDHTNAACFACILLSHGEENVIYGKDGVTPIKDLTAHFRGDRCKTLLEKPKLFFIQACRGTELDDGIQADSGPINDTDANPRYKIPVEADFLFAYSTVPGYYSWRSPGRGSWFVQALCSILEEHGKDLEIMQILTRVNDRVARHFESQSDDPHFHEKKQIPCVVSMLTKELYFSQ
The experiment can be described thus: Inhibition of human caspase 7.

In a further experiment the target is T2, Caspase-1 (Homo sapiens, UniProt P29466).
T2 sequence (P29466 whole entry): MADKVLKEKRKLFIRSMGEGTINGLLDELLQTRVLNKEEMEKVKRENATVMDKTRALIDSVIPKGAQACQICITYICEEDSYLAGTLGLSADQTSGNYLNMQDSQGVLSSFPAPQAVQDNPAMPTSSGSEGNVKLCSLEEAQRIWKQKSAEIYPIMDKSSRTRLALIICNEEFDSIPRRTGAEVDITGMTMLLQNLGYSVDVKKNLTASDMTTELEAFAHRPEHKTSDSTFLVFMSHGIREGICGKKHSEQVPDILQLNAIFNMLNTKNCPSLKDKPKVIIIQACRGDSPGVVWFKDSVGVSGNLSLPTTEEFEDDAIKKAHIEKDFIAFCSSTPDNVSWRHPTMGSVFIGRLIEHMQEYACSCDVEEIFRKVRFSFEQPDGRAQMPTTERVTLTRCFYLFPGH
The experiment can be described thus: Inhibition of human caspase 1.

In a further experiment the target is T3, Caspase-6 (Homo sapiens, UniProt P55212).
T3 sequence (P55212 whole entry): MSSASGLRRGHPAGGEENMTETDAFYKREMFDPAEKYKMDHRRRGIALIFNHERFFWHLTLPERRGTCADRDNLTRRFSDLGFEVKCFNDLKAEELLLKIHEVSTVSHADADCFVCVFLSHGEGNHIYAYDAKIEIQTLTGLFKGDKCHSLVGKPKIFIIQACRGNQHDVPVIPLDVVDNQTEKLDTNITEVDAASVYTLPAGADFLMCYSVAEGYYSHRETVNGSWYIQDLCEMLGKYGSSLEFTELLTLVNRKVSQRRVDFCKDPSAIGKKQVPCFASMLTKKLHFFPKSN
In words: Inhibition of human caspase 6.

The target of another experiment is T4, Caspase-3 (Homo sapiens, UniProt P42574).
T4 sequence (P42574 whole entry): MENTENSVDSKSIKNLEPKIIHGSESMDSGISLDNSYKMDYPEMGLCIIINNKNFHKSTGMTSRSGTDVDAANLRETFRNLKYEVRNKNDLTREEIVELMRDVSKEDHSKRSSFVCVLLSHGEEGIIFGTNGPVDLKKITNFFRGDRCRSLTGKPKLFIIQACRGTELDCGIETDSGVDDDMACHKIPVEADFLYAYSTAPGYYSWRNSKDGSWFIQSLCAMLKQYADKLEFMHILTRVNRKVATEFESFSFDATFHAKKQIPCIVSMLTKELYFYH
The experiment can be described thus: Inhibition of human recombinant caspase 3 by fluorometric assay.

In another experiment the target is Caspase-8 (Homo sapiens, UniProt Q14790). In words: Inhibition of human caspase 8.
Chain of Caspase-8 (Q14790 217-374 limits assumed): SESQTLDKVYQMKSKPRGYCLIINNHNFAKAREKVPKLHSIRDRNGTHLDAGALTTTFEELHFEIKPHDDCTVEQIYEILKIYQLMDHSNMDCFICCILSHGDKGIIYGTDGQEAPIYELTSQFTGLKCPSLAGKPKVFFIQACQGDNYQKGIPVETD
Chain of Caspase-8 (Q14790 385-479 limits assumed): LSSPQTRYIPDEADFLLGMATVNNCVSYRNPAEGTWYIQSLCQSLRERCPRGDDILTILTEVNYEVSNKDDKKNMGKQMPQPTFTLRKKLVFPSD
The target in another experiment is T5, Caspase-9 (Homo sapiens, UniProt P55211).
T5 sequence (P55211 whole entry): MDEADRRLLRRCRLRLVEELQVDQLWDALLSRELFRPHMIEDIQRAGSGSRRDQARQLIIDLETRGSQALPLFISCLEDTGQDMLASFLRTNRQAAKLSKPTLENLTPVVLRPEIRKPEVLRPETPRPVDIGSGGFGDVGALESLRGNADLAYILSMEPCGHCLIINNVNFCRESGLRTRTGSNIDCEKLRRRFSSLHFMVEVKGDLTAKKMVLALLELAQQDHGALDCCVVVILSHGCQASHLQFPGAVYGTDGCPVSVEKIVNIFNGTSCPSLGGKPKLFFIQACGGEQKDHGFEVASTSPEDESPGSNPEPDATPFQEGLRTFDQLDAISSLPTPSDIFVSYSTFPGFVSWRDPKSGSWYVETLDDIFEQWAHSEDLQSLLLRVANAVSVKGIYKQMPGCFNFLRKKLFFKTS
The experiment can be described thus: Inhibition of human caspase 9.

Turning to `O=C(O)CC(NC(=O)c1ccccc1NC(=O)OCc1ccccc1)C(=O)CF` (stereo not given), in the experiment with HeLa, the IC50 worked out at 4000 nM.
Turning to `CC(C)[C@H](NC(=O)OCc1ccccc1)C(=O)Nc1ccccc1C(=O)NC(CC(=O)O)C(=O)CF` (stereo not given in full), the IC50 was found to be 11 nM on Caspase-7; 12 nM at Caspase-1; 61 nM against Caspase-6; 33 nM at Caspase-3; 6 nM against Caspase-8; 6 nM at Caspase-9.
For `O=C(O)CN(C(=O)CF)C(=O)[C@H]1CCN1C(=O)OCc1ccccc1`, in the experiment on HeLa, the half-maximal inhibitory concentration (IC50) was 1700 nM.
Still for that read-out and setting: the value for `O=C(O)CC(NC(=O)c1sccc1NC(=O)OCc1ccccc1)C(=O)CF` (stereo not given) was greater than 2000 nM.
In the case of `O=C(O)CN(C(=O)CF)C(=O)[C@H]1CCCN1C(=O)OCc1ccccc1`, the IC50 with HeLa was greater than 2000 nM.

The term IC50 denotes the concentration that gives 50% inhibition.
